Patent US20130109581A1, “POSITIVELY CHARGED SPECIES AS BINDING REAGENTS IN THE SEPARATION OF PROTEIN AGGREGATES FROM MONOMERS” (priority 2009, published 2013)

Legend:
[1] = target: T1, oligomeric beta amyloid 1-42 (globulomer) (Homo sapiens, UniProt P05067); assay: Misfolded Protein Assay: capture of globulomer spiked into CSF (Example 2); assay type: binding
T1 construct: beta amyloid (1-42) was monomerized with incubation in hexafluoroisopropanol
Description: To assess the ability of these reagents to capture protein aggregates, the previously described Misfolded Protein Assay or MPA (Lau et al., 2007, PNAS, 104: 11551) was used (FIG. 3). In this assay, the capture reagent of interest is attached to beads which are incubated with a sample of interest containing a mixture of normal monomeric and aggregated proteins to allow for capture and then washed to remove unbound material. After this enrichment step, an elution buffer is used to dissociate the captured material from the beads as well as to denature any aggregates. The eluted material is then applied to a sandwich ELISA that is specific for the protein of interest. Strong aggregate-binding reagents acting as effective capture reagents show a high signal from the sample containing a mixture of monomers and aggregates, but not from the control sample, which contains only physiologic levels of monomeric protein.
Beads displaying carboxylic acids were treated with EDC and BMPH to create maleimide-displaying beads, to which thiolated peptides (or other thiolated organic molecules) were added through a Michael addition reaction. Dynal M270 magnetized beads (30 mg/mL bead) displaying carboxylic acids were vortexed and placed into a 15 ml falcon tube. The tube was placed into a magnet, and the supernatant removed. The beads were washed 2 times with 0.1 M MES buffer, pH 5, and then the washing buffer was removed. The coupling solution (33 mM BMPH, 130 mM EDC in MES buffer) was added, and the tube was rocked for 30 minutes at room temperature. After washing in 1×MES, 1× Tris, pH 7.5, the beads were quenched with Tris buffer (50 mM Tris buffer, pH 7.5) for 15 minutes. The beads were then washed 2 times in phosphate buffer and added to 5 mM thiolated ligand in degassed phosphate. The beads were rotated for 21 hours, then washed in 0.1 M phosphate buffer, pH 7, 1×PBS, and stored.
To prepare the globulomer, beta amyloid (1-42) was monomerized with incubation in hexafluoroisopropanol. The hexafluoroisopropanol was removed by vacuum centrifugation. DMSO, PBS, and 2% SDS were then added to the sample. The sample was vortexed and sonicated and then incubated at 37° C. After 6 hours, the sample was diluted with water, vortexed, and incubated at 37° C. for an additional 19 hours. The sample was ultracentrifuged at 135000×g for 1 hour at 4° C., and the supernatant retained. The globulomers were spiked into CSF for the assay.
Aliquots of beads conjugated to various reagents were added to wells of a 96-well plate. Globulomer-spiked CSF in a Tris buffer was added to each well, and the plates were incubated for 1 hour at 37° C. with shaking. For the negative control, normal CSF was used, which is considered to contain only monomers of beta amyloid. The beads were washed with TBST wash buffer, and bound materials were eluted with a denaturing solution (typically 0.1-0.15 N NaOH). A reconditioning buffer was added to the eluate prior to beta amyloid detection via a beta amyloid (1-42) specific sandwich ELISA.
In order to determine the amount of ligand loading, amine quanitation was used. Aliquots of beads were placed in a magnet, and the supernatant removed. 80% phenol in ethanol, 0.2 mM KCN in pyridine/water, and 6% ninhydrin in ethanol was added to each tube. The aliquots were vortexed and heated for 7 minutes at 100° C. After cooling to room temperature, 60% ethanol was added. The tubes were placed in a magnet, and the absorbance of the supernatant at 570 nm was determined. The loading of the beads was determined according to Beer's law, using the extinction coefficient of 15000 M-1 cm-1.
Beads (3 ul or 15 ul) were added to samples containing 0.5 ng/mL globulomer spiked into CSF. […] For PSR1, this limit was ˜5 nmol ligand/mg bead for binding preferentially to globulomer. […]

[2] = tested on: Alzheimer's Disease Brain Homogenate (ADBH) Aβ aggregates; assay: Misfolded Protein Assay, LoD in CSF: ADBH; assay type: binding, human; settings: spiked into CSF
Description: The Ab42 aggregates were prepared as previously described: fibrils were prepared per Stine et al (JBC 2003, 278, p11612), globulomers were prepared per Barghorn et al (J Neurology 2005 95 p834), ADDLs were prepared per Lambert et al (PNAS 1998, 95 p6448), and ASPDs were prepared per Noguchi et al (JBC 2009 284 p32895). Normal CSF was pooled from clinically characterized non-demented patient CSF samples. AD CSF was pooled from clinically-characterized AD patient samples. Alzheimer's Disease Brain Homogenate (ADBH) was prepared by sonication of clinically diagnosed AD patient brain samples in 0.2M.sucrose (1:10 w/v).
For the capture assay (Misfolded Protein Assay), aliquots of the beads (30 ul) were added to wells of a 96 well plate, followed by 125 ul of sample in 80:20 CSF:TBSTT. The plate was sealed and incubated for 1 h at 37 C with shaking. The plate was washed with TBST and the residual buffer removed. A denaturing solution (0.1 N NaOH) was added to each well and the plate heated to 80 C. for 30 min with shaking. After cooling the plate to RT, a neutralizing buffer (0.12 M NaH2PO3-0.4% TW20,) was added and the plate shaken briefly at RT. The assay was analyzed using the triplex Mesoscale Discovery ELISA kit for Aβ. The Aβ in the samples eluted from the beads were detected per the manufacturer's protocol. […]

amylin fibrils = amylin fibrils (Homo sapiens, UniProt P10997); assay: MPA of in vitro synthesized amylin; assay type: binding; settings: buffer and plasma; FIG. 45
Sequence of amylin fibrils (P10997 34-70 limits assumed): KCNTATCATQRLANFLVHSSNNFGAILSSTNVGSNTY

T1 sequence (P05067 672-713 limits assumed): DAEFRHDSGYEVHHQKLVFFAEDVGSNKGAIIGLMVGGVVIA

## Nab-Nab-Nab-Nbn-Nab-Nbn [PSR1]
[1]; 0.5 ng/mL globulomer in CSF, assuming all amines protonated at pH 7.4
  minimum density required for oligomer capture: roughly 6000 nmol positive charges/m^2
[1]; 0.5 ng/mL globulomer in CSF, from 2-5 m^2 surface area per gram bead
  minimum density required for oligomer capture: approximately 1500 nmol ligand/m^2
[1]; 0.5 ng/mL globulomer spiked into CSF, 3 ul or 15 ul beads
  minimum density required for oligomer capture: ~5 nmol ligand/mg bead
[1]; globulomer-spiked CSF vs normal CSF, reagent on Dynal M270 beads
  capture of oligomers (relative light units from the Abeta ELISA): capable of enriching oligomers
[1]; native vs denatured globulomer in CSF, directly conjugated beads vs streptavidin beads with biotin-PSR1
  sensitivity and specificity for globulomers: higher sensitivity and specificity for globulomers
[2]
  LoD: <0.2 amol
Amylin fibrils
  binding to amylin fibrils over monomers: bind preferentially to in vitro-synthesized amylin fibrils over amylin monomers in both buffer (A) and plasma (B)
